Columns and labels:
[1] = pH cycling study: remineralization of artificial lesions (SMH, EFU); set-up: species or system Bovine; details: five days, calcium compounds used together with 100 ppm F treatments
Procedure: A pH cycling study was performed. The study was developed to simulate the spike in acid production after three meals during the course of a day.
Bovine enamel specimens were polished and artificial lesions formed by immersion of the specimens in a lesion forming solution consisting of 0.1 M lactic acid and 0.2% Carbopol C907 which was 50% saturated with hydroxyapatite and adjusted to pH 5.0. The average specimen surface microhardness (SMH) was determined from four indentations on the surface of each specimen, using a Vickers hardness indenter at a load of 200 g for 15 seconds. […] Specimens were divided into subgroups of 18 specimens balanced by post-demineralization surface microhardness (SMH) values.
Remineralization efficacy was evaluated under two different cyclic treatment regimens. Both regimens consisted of three one-minute fluoride treatment periods (100 ppm, pH=6.5), and three one-hour acid challenges in the lesion forming solution, with calcium introduced during the acid challenges.
The difference between the two treatment regimens was the relative order of the fluoride treatments and the acid challenges. In Regimen I, shown in Table 1, the demineralization event (Demin: Lactic Acid Challenge) occurred first, followed by the remineralization event (Remin: Artificial Saliva Soak). In Regimen II, shown in Table 2, the order of events was reversed, and the remineralization event occurred first, followed by the demineralization event.
During the acid challenge periods (Demin: Lactic Acid Challenge), a 15 ml aliquot of the lesion forming solution was transferred to a treatment beaker containing six enamel specimens. Calcium compounds at equimolar calcium concentration, were introduced to the solution 20 minutes after the start of the acid challenge.
The pH cycling regimens were repeated for five consecutive days. […] As a negative control, the calcium sources, as well as the fluoride source, were replaced with water. Also, for comparison purposes, a study was performed with only the fluoride source.
After five days of treatment and pH cycling, remineralization efficacy was measured from change in surface microhardness (SMH) and enamel fluoride uptake (EFU). The surface microhardness was measured as described above, where the indentations were measured next to the baseline indentations. The fluoride content was determined by micro-drilling to a depth of 100 micron into each tooth. The enamel powder from the drill hole was collected, dissolved (20 microliter of HClO4, 40 microliter Citrate/EDTA Buffer and 40 microliter deionized (DI) water) and analyzed for fluoride by comparison to a similarly prepared standard curve.

[2] = pH study: change in pH of lesion forming solution after addition of calcium compounds; format: physicochemical; details: 8 mM Ca added to lesion forming solution (pH 5.0), stirred 30 minutes at 37 degrees C.
Procedure: Powders were added and allowed to stir for 30 minutes at 37 degrees C. before measuring the pH.

SMILES	EFU, comparison between treatment groups (in words) ([1]; Regimen II)	SMH, comparison between treatment groups (in words) ([1]; Regimen II)	EFU, comparison between treatment groups (in words) ([1]; Regimen I)	SMH, comparison between treatment groups (in words) ([1]; Regimen I)	ΔpH [2]
O.O.[Ca+2].[Cl-].[Cl-] [Calcium Chloride Dihydrate, reference compound]	highest values of EFU	highest values of SMH	–	–	–
O=P([O-])([O-])[O-].O=P([O-])([O-])[O-].[Ca+2].[Ca+2].[Ca+2] [Alpha-Tricalcium Phosphate]	equivalent to the EFU of the specimens only treated with 100 ppm F	comparable to the SMH of the specimens only treated with 100 ppm F	comparable to the EFU of the highly soluble calcium compound (Calcium Chloride Dihydrate) treated specimens	comparable to the SMH of the highly soluble calcium compound (Calcium Chloride Dihydrate) treated specimens	+0.33

From patent publication US11857653B2
